These are literature values, as cited in patent US20230192588A1, “CANNABIDIOLIC ACID (CBDA) DERIVATIVES AND USES THEREOF” (YISSUM RESEARCH DEVELOPMENT COMPANY OF THE HEBREW …, priority 2020, published 2023).

Series [1] concerns rats. The note with it: compared to CBDA, 5-HT1A receptor-dependent manner.
Series [2] deals with rats. The note with it: compared to CBDA, 5-HT1A receptor-dependent manner. This is another data set of the same source.
For the next series, the system named is rat models. Conditions: oral ingestion of a low dose (1 mg/kg); two rat models.

For the compound `C=C(C)[C@@H]1CCC(C)=C[C@H]1c1c(O)cc(CCCCC)c(C(=O)OC)c1O` [HU-580, cannabidiolic acid methyl ester], the “potency in suppressing signs of both acute and anticipatory nausea” value in the series with rats [1] is “greater potency than CBDA”. The “potency in suppressing signs of stress-induced anxiety” value in the series on rats [2] was “greater potency than CBDA”. In the series with rat models, the anti-depressant effect result was “potent anti-depressant effect”.
